In brackets after ≈: the same amount, converted by molar mass.
What was measured:
Type in all cases: functional
Streptococcus pneumoniae = assay: Antibacterial activity against penicillin-resistant Streptococcus pneumoniae after 16 hrs by agar dilution method
[1] = system: Staphylococcus epidermidis; assay: Antibacterial activity against methicillin-sensitive Staphylococcus epidermidis after 16 hrs by agar dilution method
Staphylococcus aureus [2] = assay: Antibacterial activity against methicillin-resistant Staphylococcus aureus after 16 hrs by agar dilution method
Staphylococcus aureus [3] = assay: Antibacterial activity against methicillin-sensitive Staphylococcus aureus after 16 hrs by agar dilution method
Staphylococcus aureus [4] = assay: Antibacterial activity against Staphylococcus aureus […] after 16 hrs by agar dilution method
[5] = system: Staphylococcus epidermidis; assay: Antibacterial activity against methicillin-resistant Staphylococcus epidermidis after 16 hrs by agar dilution method

C=C[C@]1(C)C[C@@H](OC(=O)CSc2cc(/C=N/O)ccn2)[C@]2(C)[C@H](C)CC[C@]3(CCC(=O)[C@H]32)[C@@H](C)[C@@H]1O
MIC (Streptococcus pneumoniae): 0.25 µg/mL (≈ 0.486 µM) | MIC [1]: 0.063 µg/mL (≈ 0.122 µM) | MIC (Staphylococcus aureus [2]): 0.125 µg/mL (≈ 0.243 µM) | MIC (Staphylococcus aureus [3]): 0.063 µg/mL (≈ 0.122 µM) | MIC (Staphylococcus aureus [4]): 0.125 µg/mL (≈ 0.243 µM) | MIC [5]: 0.125 µg/mL (≈ 0.243 µM)

C=C[C@]1(C)C[C@@H](OC(=O)CSc2cncc(O)c2)[C@]2(C)[C@H](C)CC[C@]3(CCC(=O)[C@H]32)[C@@H](C)[C@@H]1O
MIC (Streptococcus pneumoniae): 0.063 µg/mL (≈ 0.129 µM) | MIC [1]: 0.063 µg/mL (≈ 0.129 µM) | MIC (Staphylococcus aureus [2]): 0.063 µg/mL (≈ 0.129 µM) | MIC (Staphylococcus aureus [3]): 0.063 µg/mL (≈ 0.129 µM) | MIC (Staphylococcus aureus [4]): 0.125 µg/mL (≈ 0.256 µM) | MIC [5]: 0.063 µg/mL (≈ 0.129 µM)

C=C[C@]1(C)C[C@@H](OC(=O)CSc2ncccc2CO)[C@]2(C)[C@H](C)CC[C@]3(CCC(=O)[C@H]32)[C@@H](C)[C@@H]1O
MIC (Streptococcus pneumoniae): 0.125 µg/mL (≈ 0.249 µM) | MIC [1]: 0.063 µg/mL (≈ 0.126 µM) | MIC (Staphylococcus aureus [2]): 0.125 µg/mL (≈ 0.249 µM) | MIC (Staphylococcus aureus [3]): 0.125 µg/mL (≈ 0.249 µM) | MIC (Staphylococcus aureus [4]): 0.125 µg/mL (≈ 0.249 µM) | MIC [5]: 0.125 µg/mL (≈ 0.249 µM)

C=C[C@]1(C)C[C@@H](OC(=O)CSc2cccnn2)[C@]2(C)[C@H](C)CC[C@]3(CCC(=O)[C@H]32)[C@@H](C)[C@@H]1O
MIC (Streptococcus pneumoniae): 0.125 µg/mL (≈ 0.264 µM) | MIC [1]: 0.063 µg/mL (≈ 0.133 µM) | MIC (Staphylococcus aureus [2]): 0.25 µg/mL (≈ 0.529 µM) | MIC (Staphylococcus aureus [3]): 0.125 µg/mL (≈ 0.264 µM) | MIC (Staphylococcus aureus [4]): 0.25 µg/mL (≈ 0.529 µM) | MIC [5]: 0.063 µg/mL (≈ 0.133 µM)

C=C[C@]1(C)C[C@@H](OC(=O)CSc2ncccc2[N+](=O)[O-])[C@]2(C)[C@H](C)CC[C@]3(CCC(=O)[C@H]32)[C@@H](C)[C@@H]1O
MIC (Streptococcus pneumoniae): 0.125 µg/mL (≈ 0.242 µM) | MIC [1]: 0.125 µg/mL (≈ 0.242 µM) | MIC (Staphylococcus aureus [2]): 0.063 µg/mL (≈ 0.122 µM) | MIC (Staphylococcus aureus [3]): 0.125 µg/mL (≈ 0.242 µM) | MIC (Staphylococcus aureus [4]): 0.125 µg/mL (≈ 0.242 µM) | MIC [5]: 0.063 µg/mL (≈ 0.122 µM)

C=C[C@]1(C)C[C@@H](OC(=O)CSc2cc(/C=N/N)ccn2)[C@]2(C)[C@H](C)CC[C@]3(CCC(=O)[C@H]32)[C@@H](C)[C@@H]1O
MIC (Streptococcus pneumoniae): 0.5 µg/mL (≈ 0.973 µM) | MIC [1]: 0.5 µg/mL (≈ 0.973 µM) | MIC (Staphylococcus aureus [2]): 0.5 µg/mL (≈ 0.973 µM) | MIC (Staphylococcus aureus [3]): 0.5 µg/mL (≈ 0.973 µM) | MIC (Staphylococcus aureus [4]): 0.5 µg/mL (≈ 0.973 µM) | MIC [5]: 0.5 µg/mL (≈ 0.973 µM)

C=C[C@]1(C)C[C@@H](OC(=O)CSc2cncc(C(=O)OC)c2)[C@]2(C)[C@H](C)CC[C@]3(CCC(=O)[C@H]32)[C@@H](C)[C@@H]1O
MIC (Streptococcus pneumoniae): 0.25 µg/mL (≈ 0.472 µM) | MIC [1]: 1 µg/mL (≈ 1.89 µM) | MIC (Staphylococcus aureus [2]): 0.125 µg/mL (≈ 0.236 µM) | MIC (Staphylococcus aureus [3]): 1 µg/mL (≈ 1.89 µM) | MIC (Staphylococcus aureus [4]): 1 µg/mL (≈ 1.89 µM) | MIC [5]: 0.25 µg/mL (≈ 0.472 µM)

C=C[C@]1(C)C[C@@H](OC(=O)CSc2ccc(CO)nc2)[C@]2(C)[C@H](C)CC[C@]3(CCC(=O)[C@H]32)[C@@H](C)[C@@H]1O
MIC (Streptococcus pneumoniae): 0.063 µg/mL (≈ 0.126 µM) | MIC [1]: 0.25 µg/mL (≈ 0.498 µM) | MIC (Staphylococcus aureus [2]): 0.031 µg/mL (≈ 0.0618 µM) | MIC (Staphylococcus aureus [3]): 0.063 µg/mL (≈ 0.126 µM) | MIC (Staphylococcus aureus [4]): 0.5 µg/mL (≈ 0.997 µM) | MIC [5]: 0.031 µg/mL (≈ 0.0618 µM)

C=C[C@]1(C)C[C@@H](OC(=O)CSc2cnccn2)[C@]2(C)[C@H](C)CC[C@]3(CCC(=O)[C@H]32)[C@@H](C)[C@@H]1O
MIC (Streptococcus pneumoniae): 0.125 µg/mL (≈ 0.264 µM) | MIC [1]: 0.125 µg/mL (≈ 0.264 µM) | MIC (Staphylococcus aureus [2]): 0.125 µg/mL (≈ 0.264 µM) | MIC (Staphylococcus aureus [3]): 0.125 µg/mL (≈ 0.264 µM) | MIC (Staphylococcus aureus [4]): 0.25 µg/mL (≈ 0.529 µM) | MIC [5]: 0.125 µg/mL (≈ 0.264 µM)

C=C[C@]1(C)C[C@@H](OC(=O)CSc2cncc(OC)c2)[C@]2(C)[C@H](C)CC[C@]3(CCC(=O)[C@H]32)[C@@H](C)[C@@H]1O
MIC (Streptococcus pneumoniae): 0.125 µg/mL (≈ 0.249 µM) | MIC [1]: 2 µg/mL (≈ 3.99 µM) | MIC (Staphylococcus aureus [2]): 0.125 µg/mL (≈ 0.249 µM) | MIC (Staphylococcus aureus [3]): 0.125 µg/mL (≈ 0.249 µM) | MIC (Staphylococcus aureus [4]): 1 µg/mL (≈ 1.99 µM) | MIC [5]: 0.125 µg/mL (≈ 0.249 µM)

C=C[C@]1(C)C[C@@H](OC(=O)CSc2cncc(NC(=O)CN3CCC[C@H]3CN)c2)[C@]2(C)[C@H](C)CC[C@]3(CCC(=O)[C@H]32)[C@@H](C)[C@@H]1O
MIC (Streptococcus pneumoniae): 0.063 µg/mL (≈ 0.101 µM) | MIC [1]: 0.5 µg/mL (≈ 0.798 µM) | MIC (Staphylococcus aureus [2]): 1 µg/mL (≈ 1.6 µM) | MIC (Staphylococcus aureus [3]): 0.5 µg/mL (≈ 0.798 µM) | MIC (Staphylococcus aureus [4]): 0.25 µg/mL (≈ 0.399 µM) | MIC [5]: 0.5 µg/mL (≈ 0.798 µM)

C=C[C@]1(C)C[C@@H](OC(=O)CSc2cncc(NC(=O)[C@H]3CCCCN3)c2)[C@]2(C)[C@H](C)CC[C@]3(CCC(=O)[C@H]32)[C@@H](C)[C@@H]1O
MIC (Streptococcus pneumoniae): 0.125 µg/mL (≈ 0.209 µM) | MIC [1]: 0.031 µg/mL (≈ 0.0519 µM) | MIC (Staphylococcus aureus [2]): 0.125 µg/mL (≈ 0.209 µM) | MIC (Staphylococcus aureus [3]): 0.063 µg/mL (≈ 0.105 µM) | MIC (Staphylococcus aureus [4]): 0.125 µg/mL (≈ 0.209 µM) | MIC [5]: 0.125 µg/mL (≈ 0.209 µM)

C=C[C@]1(C)C[C@@H](OC(=O)CSc2cncc(NC(=O)CNCCO)c2)[C@]2(C)[C@H](C)CC[C@]3(CCC(=O)[C@H]32)[C@@H](C)[C@@H]1O
MIC (Streptococcus pneumoniae): 0.063 µg/mL (≈ 0.107 µM) | MIC [1]: 0.125 µg/mL (≈ 0.213 µM) | MIC (Staphylococcus aureus [2]): 0.25 µg/mL (≈ 0.425 µM) | MIC (Staphylococcus aureus [3]): 0.125 µg/mL (≈ 0.213 µM) | MIC (Staphylococcus aureus [4]): 0.125 µg/mL (≈ 0.213 µM) | MIC [5]: 0.25 µg/mL (≈ 0.425 µM)

C=C[C@]1(C)C[C@@H](OC(=O)CSc2cc(CO)ccn2)[C@]2(C)[C@H](C)CC[C@]3(CCC(=O)[C@H]32)[C@@H](C)[C@@H]1O
MIC (Streptococcus pneumoniae): 0.125 µg/mL (≈ 0.249 µM) | MIC [1]: 0.125 µg/mL (≈ 0.249 µM) | MIC (Staphylococcus aureus [2]): 0.125 µg/mL (≈ 0.249 µM) | MIC (Staphylococcus aureus [3]): 0.125 µg/mL (≈ 0.249 µM) | MIC (Staphylococcus aureus [4]): 0.125 µg/mL (≈ 0.249 µM) | MIC [5]: 0.125 µg/mL (≈ 0.249 µM)

C=C[C@]1(C)C[C@@H](OC(=O)CSc2cc(C#N)ccn2)[C@]2(C)[C@H](C)CC[C@]3(CCC(=O)[C@H]32)[C@@H](C)[C@@H]1O
MIC (Streptococcus pneumoniae): 0.063 µg/mL (≈ 0.127 µM) | MIC [1]: 0.063 µg/mL (≈ 0.127 µM) | MIC (Staphylococcus aureus [2]): 0.063 µg/mL (≈ 0.127 µM) | MIC (Staphylococcus aureus [3]): 0.063 µg/mL (≈ 0.127 µM) | MIC (Staphylococcus aureus [4]): 0.125 µg/mL (≈ 0.252 µM) | MIC [5]: 0.063 µg/mL (≈ 0.127 µM)

C=C[C@]1(C)C[C@@H](OC(=O)CSc2cncc(/C=N/O)c2)[C@]2(C)[C@H](C)CC[C@]3(CCC(=O)[C@H]32)[C@@H](C)[C@@H]1O
MIC (Streptococcus pneumoniae): 0.063 µg/mL (≈ 0.122 µM) | MIC [1]: 0.063 µg/mL (≈ 0.122 µM) | MIC (Staphylococcus aureus [2]): 0.063 µg/mL (≈ 0.122 µM) | MIC (Staphylococcus aureus [3]): 0.063 µg/mL (≈ 0.122 µM) | MIC (Staphylococcus aureus [4]): 0.063 µg/mL (≈ 0.122 µM) | MIC [5]: 0.063 µg/mL (≈ 0.122 µM)

From ChEMBL document CHEMBL3286253, “Design, synthesis, and structure-activity relationship studies of novel thioether pleuromutilin derivatives as potent antibacterial agents” (J Med Chem, 2014)
